What is called EC50 is the concentration that produces a half-maximal response.

Data on 17 compounds can be found in ChEMBL document CHEMBL4665765, “Antimalarial activity of tetrahydro-β-carbolines targeting the ATP binding pocket of the Plasmodium falciparum heat shock 90 protein” (Bioorg Med Chem Lett, 2020).

Data set [1] is described as follows: Therapeutic index, ratio of EC50 for cytotoxicity against human BJ cells to EC50 for antimalarial activity against Plasmodium falciparum 3D7. The data set is classed as toxicity, cell-based. The note with it: read-out: Ratio EC50.
A further data set concerns BJ. Kind of data set: Cytotoxicity against human BJ cells. The data set is classed as cell-based.
In data set [2] the test system is Plasmodium falciparum. Briefly: Antimalarial activity against chloroquine-sensitive Plasmodium falciparum 3D7 infected in o-positive erythrocyte assessed as reduction in parasite growth. The data set is classed as functional, organism-based. The note with it: 3D7, Erythrocyte.
The subject of another data set is HeLa. Briefly: Cytotoxicity against human HeLa cells assessed as reduction in cell viability incubated for 48 hrs by CCK8 assay. The data set is classed as cell-based. (Tetrazolium assays rely on reduction of a dye to a coloured formazan, in cell work by metabolically active cells.)
A further data set relates to HepG2. Kind of data set: Cytotoxicity against human HepG2 cells assessed as reduction in cell viability incubated for 48 hrs by CCK8 assay. The data set is classed as cell-based. As to conditions: HepG2, 48 h.
The test system of data set [3] is Plasmodium falciparum. Kind of data set: Antimalarial activity against Plasmodium falciparum 3D7 infected in erythrocytes assessed as reduction in parasite growth incubated for 72 hrs by SYBR green dye based fluorescence assay. The data set is classed as functional, organism-based. As to conditions: 3D7, Erythrocyte.

For `Oc1ccc(C2NCCc3c2[nH]c2ccc(Cl)cc32)cc1` (stereo unspecified), the selectivity ratio in data set [1] turned out to be 5. Besides, the figures for the EC50 with BJ and in the data set with Plasmodium falciparum [2] were above 24 µM and 4.45 µM, respectively.
As for `Clc1ccc(C2NCCc3c2[nH]c2ccc(Cl)cc32)cc1` (stereo unspecified), in data set [1], the selectivity ratio was found to be 2. Also, the concentration for a half-maximal effect (EC50) stood at 23 µM with BJ and 13.3 µM in the data set with Plasmodium falciparum [2].
As to `Clc1cccc(C2NCCc3c2[nH]c2ccc(Cl)cc32)c1` (stereo unspecified), the selectivity ratio in data set [1] was 9. In addition, the EC50 is 23.6 µM in the data set on BJ and 2.53 µM with Plasmodium falciparum [2].
The matching figures for `Cc1ccc(C2NCCc3c2[nH]c2ccc(Cl)cc32)cc1` (stereo unspecified): 1, above 24 µM and 17.9 µM.
As to `Oc1ccccc1C1NCCc2c1[nH]c1ccc(Cl)cc21` (stereo unspecified), the selectivity ratio in data set [1] is 4. Further, the EC50 amounted to 15.7 µM with BJ and 4.35 µM in the data set on Plasmodium falciparum [2].
As for `Clc1ccc2[nH]c3c(c2c1)CCNC3c1cccc2ccccc12` (stereo unspecified), the selectivity ratio in data set [1] is 3. In addition, the 50% effective concentration (EC50) is above 24 µM in the data set on BJ and 7.06 µM with Plasmodium falciparum [2].
Consider `Cc1cccc(C2NCCc3c2[nH]c2ccc(Cl)cc32)c1` (stereo unspecified), for which the selectivity ratio in data set [1] was 68. The concentration giving a half-maximal response (EC50) was above 24 µM with BJ and 0.352 µM with Plasmodium falciparum [2].
The matching figures for `Clc1ccc2[nH]c3c(c2c1)CCNC3c1ccc2ccccc2c1` (stereo unspecified): 1, 17.2 µM and 16.6 µM.
As to `Clc1ccc2[nH]c3c(c2c1)CCNC3C1CCCCC1` (stereo unspecified), the selectivity ratio in data set [1] was determined as 2. The EC50 was above 24 µM with BJ and 12.1 µM in the data set with Plasmodium falciparum [2].
`Clc1ccc2[nH]c3c(c2c1)CCNC3c1ccccc1` (stereo unspecified): in data set [1], the selectivity ratio is 14. The EC50 is above 24 µM in the data set on BJ and 1.67 µM in the data set with Plasmodium falciparum [2].
On to `CC1NCCc2c1n(C)c1ccc(Cl)cc21` (stereo unspecified), for which the selectivity ratio in data set [1] was 1. Also, the 50% effective concentration (EC50) was above 24 µM in the data set with BJ and above 18 µM with Plasmodium falciparum [2].
The matching figures for `Clc1ccc2[nH]c3c(c2c1)CCNC3Cc1ccccc1` (stereo unspecified): 2, above 24 µM and 10.9 µM.
As for `Clc1ccc2[nH]c3c(c2c1)CCNC3c1ccccc1Cl` (stereo unspecified), the selectivity ratio in data set [1] stood at 12. Moreover, the EC50 was above 24 µM in the data set on BJ and 1.94 µM with Plasmodium falciparum [2].
Take `CC1NCCc2c1[nH]c1ccc(Cl)cc21` (stereo unspecified): the concentration giving a half-maximal response (EC50) in the data set with HeLa worked out at 1100 µM; in the data set with HepG2 it was 160 µM; in the data set with Plasmodium falciparum [3], 12.2 µM.
Turning to `Oc1cccc(C2NCCc3c2[nH]c2ccc(Cl)cc32)c1` (stereo unspecified), the selectivity ratio in data set [1] came out at 3. Moreover, the EC50 is above 24 µM in the data set on BJ and 7.53 µM with Plasmodium falciparum [2].
As to `CCn1c2c(c3cc(Cl)ccc31)CCNC2C` (stereo unspecified), in data set [1], the selectivity ratio was 1. The EC50 with BJ was above 24 µM; in the data set on Plasmodium falciparum [2], above 18 µM.
Regarding `Cc1ccccc1C1NCCc2c1[nH]c1ccc(Cl)cc21` (stereo unspecified), the selectivity ratio in data set [1] turned out to be 12. Moreover, the EC50 was above 24 µM in the data set with BJ and 2.08 µM in the data set with Plasmodium falciparum [2].
